# According to US8216785B2, “Method for detecting neuroblastoma” (Fujifilm Corporation, priority 2008, dated 2012):
# Non-standard residues stand in square brackets, D forms with d. Residues, ends and D or L forms follow the SMILES beside them. *: point of attachment. Nle = CCCC[C@H](N)C(=O)O; Cbz = O=C(OCc1ccccc1)*; CH2F = FC*
# Legend:
# Format in all cases: cell-based
# [1] = test system: Ad-LAPTM5-infected GOTO cells; assay: Cell death frequency along with LAPTM5 accumulation, trypan blue exclusion; details: treated one day after Ad-LAPTM5 infection for additional one day
# Protocol: As in the case of (a), the cells that had died upon treatment were assayed via trypan blue exclusion. A vertical line represents the standard deviation of two experiments.
# (§1) Accordingly, whether or not LAPTM5 would undergo proteasomal or lysosomal proteolysis and whether or not LAPTM5 accumulation would be important for cell death were inspected. One day after Ad-LAPTM5 infection, the cells were treated with a proteasome inhibitor (ALLN or MG132) or a lysosome inhibitor (Bailomycin A1 and NH4Cl) for additional one day. Thereafter, the cells were recovered, samples were prepared, and Western blot analysis was performed. […] Further, this accumulation was also confirmed via fluorescent staining using the LAPTM5 antibody (FIG. 4b). […] Thus, LAPTM5 was considered to undergo proteasomal and lysosomal proteolysis, and LAPTM5 accumulation was considered to be deeply involved with induction of cell death. In order to examine whether or not LAPTM5 accumulation would be essential for induction of cell death, the influence of transfection of siRNA against LAPTM5 was then examined.
# [2] = test system: LAPTM5 in Ad-LAPTM5-infected GOTO cells; assay: LAPTM5 accumulation upon blocking proteasomal or lysosomal degradation, Western blot and fluorescent staining; details: treated one day after Ad-LAPTM5 infection for additional one day
# Protocol: The cells were treated with a proteasome inhibitor (ALLN or MG132) or a lysosomal degradation inhibitor (Bafilimycin A1 or […]) 1 day later. The cells were recovered 1 day later, the samples were prepared, and Western blot analysis was then carried out. The prepared samples were subjected to SDS-PAGE, and Western blot analysis was carried out using relevant antibodies.
# As with the case of (a), the cells were treated, fixed, subjected to the immune reaction using the LAPTM5 antibody, and visualized with the use of the Texas Red complex secondary antibody.
# After the control or LAPTM5 siRNA was transfected, the cells were treated as with the case of (a), and the samples were prepared. Western blot analysis was carried out using the LAPTM5 antibody.
# as §1
# GOTO cells [3] = assay: Treatment with MPP+ or H2O2: cell death, LAPTM5 expression (quantitative RT-PCR), MYCN expression (Western blot); details: for LAPTM5 expression / frequency of cell death: MPP+ 1 or 2 mM 24 hours, H2O2 100 or 200 uM 48 hours; for MYCN expression: MPP+ or H2O2 treatment
# Protocol: In FIG. 5(a), the GOTO cells were treated with MPP+ (1 or 2 mM) for 24 hours or with H2O2 (100 or 200 uM) for 48 hours. Thereafter, the dead cells were assayed via trypan blue exclusion. The LAPTM5 expression level was analyzed via quantitative RT-PCR. A vertical line represents the standard deviation of two experiments.
# The prepared samples were subjected to SDS-PAGE, and Western blot analysis was carried out using relevant antibodies.
# The cause for NB cell degeneration upon regression of favorable NB tumors has not yet been elucidated. […] This indicates a common mechanism between NB tumor regression and cell degeneration in the case of neurodegenerative diseases. Mitochondrial injury and oxidative stress are known to be deeply involved in neuron degeneration in the case of neurodegenerative disease. […] MYCN proteins are known to not only activate but also suppress transcription of various target genes. Accordingly, MYCN proteins that have been activated via amplification were considered to suppress activation of LAPTM5 transcription induced by stress. Thus, whether or not MYCN would directly bind to a site in the vicinity of the transcription initiation point of the LAPTM5 gene was inspected via ChIP assay. […] Meanwhile, the IMR32 cell line is known to differentiate into nerve cells via treatment with retinoic acid.
# GOTO cells [4] = assay: Frequency of dead cells via trypan blue exclusion after adenovirus infection; details: zVAD 100 μM
# Protocol: (§2) The cells that had been sowed under the same conditions as in (b) were infected with the same MOIs of Ad-LacZ or Ad-LAPTM5. Also, the cell lines were treated or not treated with the pan-caspase inhibitor, zVAD-fink. The number of dead cells was determined via trypan blue exclusion 2 days and 4 days after infection and was indicated in terms of percentage. A vertical line represents the standard deviation of two experiments.
# (§3) In order to inspect whether or not LAPTM5 expression is associated with cell death of neuroblastoma cells, the influence of forced LAPTM5 expression in the neuroblastoma cell line was inspected using the adenovirus-mediated expression system. Cell death and the survival rate were assayed by sowing the cells on a 24-well plate and infecting the cells with the selected MOIs of viruses (multiplicities of infection; PFU/cell). The number of dead cells was determined via trypan blue exclusion 2 or 4 days after infection. The pan-caspase inhibitor, zVAD-fml, was used at a concentration of 100 μM. At least 200 cells were counted in each experiment. The number of survived cells was determined via colorimetric assay using a water-soluble tetrazolium salt (the cell counting kit-8; Dojindo Laboratories).
# IMR32 cells = assay: as above; details: zVAD 100 μM
# Protocol: as §2, §3
# [5] = test system: GOTO cells that stably express GFP-LC3; assay: Treatment with an LMP inducer, immunoblot of GFP-LC3 type II and p62/SQSTM1; details: CPX 100 or 300 μg/ml
# Protocol: The GOTO cells (1×10^6 cells/well) that stably express GFP-LC3 were sowed on a 6-well plate and treated with ciprofloxican (CPX) (100 or 300 μg/ml) or a solvent thereof (0.1N hydrochloric acid) so as to induce LMP. The total cell extract obtained from the treated cells was electrophoresed via SDS-PAGE and subjected to immunoblot analysis using antibodies reacting with relevant proteins.
# LAPTM5 is known to be a membrane protein that localizes in the lysosome. […] Such changes in LTR staining patterns result from LMP, which indicates destabilization and destruction of the lysosome. LMP was observed along with an increase in LAPTM5-induced cell death (2.7 times in GOTO cell (p=0.0007) and 5.4 times in IMR32 cell (p=0.0108), compared with Ad-LacZ cell; FIG. 11). […] Accordingly, LAPTM5-induced LMP was deduced to induce blocking of the autophagy pathway. […] In conformity with the results of in vitro observation, elevated expression of p62/SQSTM1, ubiquitinated proteins, and cathepsin D was also observed via immunohistological staining (FIG. 3f). […] At the same time, lysosome instability induced by LAPTM5 was considered to induce accumulation of immature autophagic vesicles and ubiquitinated proteins.
smiles,measurement,setting,value
Cl.N [NH4Cl],cell death frequency,[1],significantly increased
same,accumulation of expressed LAPTM5,[2],significantly accumulated
"C[n+]1ccc(-c2ccccc2)cc1 [MPP+, 1-methyl-4-phenylpridinium]",LAPTM5 expression,GOTO cells [3],activated
same,frequency of cell death,GOTO cells [3],frequency of concentration-dependent cell death increased
same,MYCN expression,GOTO cells [3],decrease
COC(=O)C[C@H](NC(=O)[C@H](C)NC(=O)[C@@H](NC(=O)OCc1ccccc1)C(C)C)C(=O)CF [zVAD-fmk] (Cbz-Val-Ala-Asp(OMe)-CH2F),inhibition of Ad-LAPTM5-induced cell death by caspase inhibitor,GOTO cells [4],would not be inhibited
same,inhibition of Ad-LAPTM5-induced cell death by caspase inhibitor,IMR32 cells,would not be inhibited
O=C(O)c1cn(C2CC2)c2cc(N3CCNCC3)c(F)cc2c1=O [ciprofloxacin],LC3-II detection,[5],LC3-II was detected
same,p62/SQSTM1 protein accumulation,[5],p62/SQSTM1 protein accumulation was observed
CO/C1=C\C(C)=C\[C@@H](C)[C@@H](O)[C@@H](C)C/C(C)=C/C=C/[C@H](OC)[C@@H]([C@@H](C)[C@@H](O)[C@H](C)[C@@]2(O)C[C@@H](O)[C@H](C)[C@@H](C(C)C)O2)OC1=O [Bafilomycin A1],cell death frequency,[1],significantly increased
same,accumulation of expressed LAPTM5,[2],significantly accumulated
CC(C)C[C@@H](C=O)NC(=O)[C@H](CC(C)C)NC(=O)[C@H](CC(C)C)NC(=O)OCc1ccccc1 [MG132] (Cbz-Leu-Leu-Leu-aldehyde),cell death frequency,[1],significantly increased
same,accumulation of expressed LAPTM5,[2],significantly accumulated
OO [H2O2],LAPTM5 expression,GOTO cells [3],activated
same,frequency of cell death,GOTO cells [3],frequency of concentration-dependent cell death increased
same,MYCN expression,GOTO cells [3],decrease
CCCC[C@@H](C=O)NC(=O)[C@H](CC(C)C)NC(=O)[C@H](CC(C)C)NC(C)=O [ALLN] (Ac-Leu-Leu-[Nle]-aldehyde),cell death frequency,[1],significantly increased
same,accumulation of expressed LAPTM5,[2],significantly accumulated
